Tested on: 282377-053-R-J1-PDC complex spheroids, viability
Assay: Anticancer human tumor 282377-053-R-J1-PDC patient-derived colon adenocarcinoma cell line growth inhibition [GQUAD]
Conditions: for IC50: curve of first compound; for viability, T/C: stronger effect = lower value
From the text: DNA G-quadruplex Stabilizer Agents in Combinations in Complex Spheroids
A high-throughput screen of multi-cell type tumor spheroids was designed to identify active combinations of DNA G-quadruplex stabilizer agents and targeted small molecules. Complex spheroids include a stromal component modeled by human endothelial cells (HUVEC) and fibroblasts modeled by human mesenchymal stem cells (MSCs). The concentration ranges selected for each drug and investigational agent were based upon clinically achievable concentrations if the clinical Cmax of the agent was known.
Compounds. The drugs and investigational agents: pidnarulex (CX-5461; NSC782164), APTO-253 (NSC789042), BRACO-19 (NSC847499), peposertib (NSC802822), ceralasertib (NSC780249), elimusertib (NSC800525), camonsertib (NSC841442), AZD-1390 (NSC803789), olaparib (NSC753686), talazoparib (NSC767125), ART-558 (NSC835418), sotorasib (NSC818433), MRTX-1133 (NSC836407), SN-38 (NSC673596), topotecan (NSC609699), etoposide (NSC141540), doxorubicin (NSC123127), gemcitabine (NSC613327), 5-fluorouracil (NSC19893), paclitaxel (NSC125973), vemurafenib (NSC761431), panobinostat (NSC761190), R-306465 (JNJ-16241199; NSC773264), adavosertib (NSC754352), TP-3654 (NSC805149), carboplatin (NSC241240), KSQ-4279 (NSC840948), and staurosporine (NSC755774) were obtained from the National Cancer Institute (NCI) Developmental Therapeutics Program Chemical Repository (34). The FDA-approved anticancer drug set is available from the NCI Developmental Therapeutics Program. […] The stock solutions were prepared in dimethyl sulfoxide (DMSO, Sigma-Aldrich, St. Louis, MO, cat. D2650) at 800-fold the tested concentration and stored at -70 degrees C prior to their use. All drugs and investigational agents were tested over a range starting from a high concentration at or near the clinical Cmax and decreasing in half-log increments. If the clinical Cmax for an agent had not been determined, the highest concentration tested was 10 microM.
2.3 Cell Culture. All cells were maintained in an incubator at 37 degrees C and 5% CO2 with 95% humidity. The PDC lines were cultured according to standard operating procedures established by the NCI PDMR. All PDCs were thawed and cultured in Matrigel-coated flasks prepared with a working solution of 1X Ham's F-12 nutrient mix, without supplementation (Invitrogen, cat. 11765054), 100 U/mL penicillin-streptomycin (Invitrogen, cat. 15140122), and 2.5% Matrigel (Corning Inc., cat. 354248) for the first three passages. The 857933-349-R-J2-PDC line was cultured in 6C/Colon 1B media, which includes advanced DMEM/F-12 (Thermo Fisher Scientific, cat. 12634028), 10 mM HEPES (Thermo Fisher Scientific, cat. 15630080), 1X GlutaMAX supplement (Thermo Fisher Scientific, cat. 35050061), 0.1 mg/mL primocin (InvivoGen, cat. ant-pm-2), 10% defined fetal bovine serum, heat inactivated (HyClone Laboratories Inc., cat. SH30070.03HI), 50% L-WRN conditioned media (ATCC, cat. CRL-3276), 1.25 mM N-Acetyl-L-cysteine (Sigma-Aldrich, cat. A9165), 10 mM nicotinamide (Sigma-Aldrich, cat. N0636), 1X B-27 supplement (Thermo Fisher Scientific, cat. 17504044), 1X N-2 supplement (Thermo Fisher Scientific, cat. 17502048), 10 microM Y-27632 dihydrochloride (Tocris Bioscience, cat. 1254), and 50 ng/mL human EGF recombinant protein (Thermo Fisher Scientific, cat. PHG0311). The 485176-168-R4-J1-PDC line was cultured in Panc media, which includes all 6C/Colon 1B media components plus 100 ng/mL human FGF-10 (Thermo Fisher Scientific, cat. 100-26), 500 nM SB-431542 (Selleckchem, cat. S1067), and gastrin (Tocris, cat. 3006).
[…]

[1] = second compound 0.0316 µM, first compound 0.0316 µM
[2] = second compound 0.0316 µM, first compound 0.1 µM
[3] = second compound 0.0316 µM, first compound 0.316 µM
[4] = second compound 0.0316 µM, first compound 1 µM
[5] = second compound 0.0316 µM, first compound 3.16 µM
[6] = second compound 0.0316 µM, first compound 10 µM
[7] = second compound 0.1 µM, first compound 0.0316 µM
[8] = second compound 0.1 µM, first compound 0.1 µM
[9] = second compound 0.1 µM, first compound 0.316 µM
[10] = second compound 0.1 µM, first compound 1 µM
[11] = second compound 0.1 µM, first compound 3.16 µM
[12] = second compound 0.1 µM, first compound 10 µM
[13] = second compound 0.316 µM, first compound 0.0316 µM
[14] = second compound 0.316 µM, first compound 0.1 µM
[15] = second compound 0.316 µM, first compound 0.316 µM
[16] = second compound 0.316 µM, first compound 1 µM
[17] = second compound 0.316 µM, first compound 3.16 µM
[18] = second compound 0.316 µM, first compound 10 µM
[19] = second compound 1 µM, first compound 0.0316 µM
[20] = second compound 1 µM, first compound 0.1 µM
[21] = second compound 1 µM, first compound 0.316 µM
[22] = second compound 1 µM, first compound 1 µM
[23] = second compound 1 µM, first compound 3.16 µM
[24] = second compound 1 µM, first compound 10 µM
[25] = second compound 3.16 µM, first compound 0.0316 µM
[26] = second compound 3.16 µM, first compound 0.1 µM
[27] = second compound 3.16 µM, first compound 0.316 µM
[28] = second compound 3.16 µM, first compound 1 µM
[29] = second compound 3.16 µM, first compound 3.16 µM
[30] = second compound 3.16 µM, first compound 10 µM
[31] = second compound 10 µM, first compound 0.0316 µM
[32] = second compound 10 µM, first compound 0.1 µM
[33] = second compound 10 µM, first compound 0.316 µM
[34] = second compound 10 µM, first compound 1 µM
[35] = second compound 10 µM, first compound 3.16 µM
[36] = second compound 10 µM, first compound 10 µM
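Note: spheroids exposed to compounds for 7 days before readout.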
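Throughout, for viability, T/C: percent of vehicle DMSO control viability with 100% = untreated-like growth.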

CC(=O)O[C@H]1C(=O)[C@@]2(C)[C@H]([C@H](OC(=O)c3ccccc3)[C@]3(O)C[C@H](OC(=O)[C@H](O)[C@@H](NC(=O)c4ccccc4)c4ccccc4)C(C)=C1C3(C)C)[C@]1(OC(C)=O)CO[C@@H]1C[C@@H]2O + CN(C)c1ccc(Nc2c3ccc(NC(=O)CCN4CCCC4)cc3nc3cc(NC(=O)CCN4CCCC4)ccc23)cc1
IC50 (second compound 0.0316 µM): 0.042 µM | IC50 (second compound 0.1 µM): 0.0447 µM | IC50 (second compound 0.316 µM): 0.0488 µM | IC50 (second compound 1 µM): 0.0347 µM | IC50 (second compound 3.16 µM): 0.0391 µM | IC50 (second compound 10 µM): < 0.0316 µM | viability, T/C [1]: 59.7% | viability, T/C [2]: 14.9% | viability, T/C [3]: 18.9% | viability, T/C [4]: 18.1% | viability, T/C [5]: 22% | viability, T/C [6]: 25.2% | viability, T/C [7]: 63.1% | viability, T/C [8]: 15.6% | viability, T/C [9]: 17.4% | viability, T/C [10]: 17.6% | viability, T/C [11]: 21.3% | viability, T/C [12]: 25.8% | viability, T/C [13]: 68% | viability, T/C [14]: 17.1% | viability, T/C [15]: 18.5% | viability, T/C [16]: 18.1% | viability, T/C [17]: 19.1% | viability, T/C [18]: 28.9% | viability, T/C [19]: 52.5% | viability, T/C [20]: 15.7% | viability, T/C [21]: 18.1% | viability, T/C [22]: 17.4% | viability, T/C [23]: 26.8% | viability, T/C [24]: 25% | viability, T/C [25]: 56.7% | viability, T/C [26]: 18.4% | viability, T/C [27]: 16.8% | viability, T/C [28]: 17.2% | viability, T/C [29]: 19.2% | viability, T/C [30]: 24.7% | viability, T/C [31]: 47.2% | viability, T/C [32]: 14.8% | viability, T/C [33]: 14.5% | viability, T/C [34]: 18.8% | viability, T/C [35]: 22.8% | viability, T/C [36]: 28.4%

CC1COCCN1c1cc(C2(O)CC3CCC(C2)O3)c2cnn(-c3ccn[nH]3)c2n1 (centres undefined) + CN(C)c1ccc(Nc2c3ccc(NC(=O)CCN4CCCC4)cc3nc3cc(NC(=O)CCN4CCCC4)ccc23)cc1
IC50 (second compound 0.0316 µM): 0.73 µM | IC50 (second compound 0.1 µM): 0.425 µM | IC50 (second compound 0.316 µM): 0.632 µM | IC50 (second compound 1 µM): 0.649 µM | IC50 (second compound 3.16 µM): 0.825 µM | IC50 (second compound 10 µM): 0.734 µM | viability, T/C [1]: 93.4% | viability, T/C [2]: 81.5% | viability, T/C [3]: 65.1% | viability, T/C [4]: 44.9% | viability, T/C [5]: 28.1% | viability, T/C [6]: 20.9% | viability, T/C [7]: 82.5% | viability, T/C [8]: 87.5% | viability, T/C [9]: 55.4% | viability, T/C [10]: 37.3% | viability, T/C [11]: 37.6% | viability, T/C [12]: 22.6% | viability, T/C [13]: 87.2% | viability, T/C [14]: 92.6% | viability, T/C [15]: 58.3% | viability, T/C [16]: 42.3% | viability, T/C [17]: 34.8% | viability, T/C [18]: 20.6% | viability, T/C [19]: 102% | viability, T/C [20]: 89% | viability, T/C [21]: 63.6% | viability, T/C [22]: 41% | viability, T/C [23]: 29.8% | viability, T/C [24]: 21.5% | viability, T/C [25]: 81.9% | viability, T/C [26]: 81.2% | viability, T/C [27]: 80.9% | viability, T/C [28]: 43.7% | viability, T/C [29]: 33.3% | viability, T/C [30]: 23.4% | viability, T/C [31]: 93% | viability, T/C [32]: 72.8% | viability, T/C [33]: 86.6% | viability, T/C [34]: 37.5% | viability, T/C [35]: 28.6% | viability, T/C [36]: 21.3%

Source: PubChem BioAssay AID2060501 (Molecular Pharmacology Branch, DTP, NCI, 2025)
